# Laboratory results from patent US12251398B2, “Topical compositions designated to maintain and/or restore the integrity of the mucosa and damaged epidermis” (RICERFARMA S.R.L., priority 2020, dated 2025).
# Tests used:
# [1] = system: Hyaluronidase from bovine testes I-S Type; assay: Enzymatic degradation of hyaluronic acid by hyaluronidase, Mw followed by HP-SEC-TDA; type: biochemical; conditions: in words
# Excerpt: The molecular weight distribution of degraded acids will be analyzed by using High Performance Size Exclusion Chromatography coupled with a Triple Detector Array (HP-SEC-TDA).
# The following is the list of reagents and materials used: • Hyaluronic acid (Mw 1.348.000 Da), Contipro a.s. (Czech Republic) • Hyaluronic acid (Mw 1.450.000 Da), Lehvoss Italia S.r.l. (Italy) • Glycerophosphocholine • Ascorbyl Palmitate • Citric acid monohydrate, Sigma Aldrich • Deionized H2O obtained with a Culligan apparatus; • Hyaluronidase from bovine testes I-S Type. 400-1000 units/mg. Sigma Aldrich; • NaNO3. Sigma Aldrich; • NaN3. Sigma Aldrich; • Snap-it vial 0.3 ml, 11.6×32 mm. Thermo Scientific; • Snap-it cap 11 mm, Thermo Scientific; • Sodium citrate diidrate, Sigma Aldrich. Samples Prepared and Tested:
# 10 ml of solution were hydrolyzed.
# Buffer Solution: Solution 1 has been added to Solution 2 and stirred at room temperature for 30′. Resulting pH=6.06.
# Hyaluronidase: about 10 mg of hyaluronidase were dissolved in about 1 ml of H2O and stirred at room temperature for 3 hours (10 mg/ml).
# The solutions were stirred at 38° C. in an oil bath for about 1 h before adding 67 μl of the enzyme solution (HA/Hyaluronidase 15/1 w/w).
# Different aliquots of solutions were collected at different timing (1 h; 2 h; 3 h; 4 h; 5 h; 6 h, 24 h) and heated at 100° C. for 5′ using a thermoshaker to denature the enzyme. The solutions were filtrated to remove the precipitated enzyme (LLG-Syringe filter CA pore size 0.20 μm. Ø 13 mm). Before HP-SEC-TDA analyses, the solutions were diluted to 0.5 mg/ml of HA with mobile phase.
# Two equivalent HP-SEC-TDA instruments were used: • 1) Viscotek system model TDA305. equipped with Refractive Index, Right and Low Angle Light Scattering and Viscometers detectors, was used under the following conditions: • Columns: 2 columns TSKGMPWXL 13 μm. […]
# [2] = system: hyaluronidases; conditions: known, in words; cited from earlier work
# [3] = as disclosed in WO93/19730; cited from earlier work
SMILES,effect on the enzymatic kinetics of HA degradation [1],effect on the enzymatic kinetics of HA degradation ([1]; listed as ascorbyl palmitate),inhibitory activity against hyaluronidases [2],systemic toxicity [3],topical tolerability [3]
"CCCCCCCCCCCCCCCC(=O)OC[C@H](O)[C@H]1OC(=O)C(O)=C1O [Ascorbyl Palmitate, Ascorbyl palmitate]",significantly effective in slowing down the enzymatic kinetics,significantly effective in slowing enzymatic kinetics,significant inhibitory activity,–,–
C[N+](C)(C)CCOP(=O)([O-])OC[C@H](O)CO [Glycerophosphocholine],does not contribute in any way to the enzymatic kinetics,–,–,practically devoid of systemic toxicity,marked topical tolerability
